Experimental data reported in ChEMBL document CHEMBL5625174, “Are inhibitors of histone deacetylase 8 (HDAC8) effective in hematological cancers especially acute myeloid leukemia (AML) and acute lymphoblastic leukemia (ALL)?” (Eur J Med Chem, 2023).
Each block holds one compound with its values, some of them ahead of it.

Assays:
[1] = Inhibition of HDAC6 (unknown origin) assessed as release of fluorogenic AMC pre-incubated for 15 mins followed by addition of trypsin and substrate measured after 60 mins microplate reader analysis; design: species or system Homo sapiens
[2] = target: T1, Polyamine deacetylase HDAC10 (Homo sapiens, UniProt Q969S8); assay: Inhibition of HDAC10 (unknown origin) assessed as release of fluorogenic AMC pre-incubated for 15 mins followed by addition of trypsin and substrate measured after 60 mins microplate reader analysis
T1 sequence (Q969S8 whole entry): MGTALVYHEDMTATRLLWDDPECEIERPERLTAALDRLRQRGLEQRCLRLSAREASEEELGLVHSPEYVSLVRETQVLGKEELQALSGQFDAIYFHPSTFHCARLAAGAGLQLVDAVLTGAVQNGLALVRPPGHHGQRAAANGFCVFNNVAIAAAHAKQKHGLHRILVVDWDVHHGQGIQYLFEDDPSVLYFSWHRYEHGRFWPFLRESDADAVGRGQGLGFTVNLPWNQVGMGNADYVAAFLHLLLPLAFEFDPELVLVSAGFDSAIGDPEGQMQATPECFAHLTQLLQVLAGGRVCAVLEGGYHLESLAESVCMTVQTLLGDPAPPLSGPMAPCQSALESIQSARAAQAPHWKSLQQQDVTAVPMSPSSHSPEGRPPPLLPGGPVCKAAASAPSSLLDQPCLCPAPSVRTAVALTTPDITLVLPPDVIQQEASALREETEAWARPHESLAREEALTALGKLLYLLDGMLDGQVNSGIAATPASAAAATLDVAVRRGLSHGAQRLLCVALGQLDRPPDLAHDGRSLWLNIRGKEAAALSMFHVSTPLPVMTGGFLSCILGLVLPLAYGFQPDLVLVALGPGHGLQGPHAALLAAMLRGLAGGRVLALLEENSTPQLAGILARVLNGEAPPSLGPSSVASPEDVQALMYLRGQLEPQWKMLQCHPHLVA

Histone deacetylase 2 = Histone deacetylase 2 (Homo sapiens, UniProt Q92769); assay: Inhibition of HDAC2 (unknown origin) assessed as release of fluorogenic AMC pre-incubated for 15 mins followed by addition of trypsin and substrate measured after 60 mins microplate reader analysis
Histone deacetylase 2, sequence (Q92769 whole entry): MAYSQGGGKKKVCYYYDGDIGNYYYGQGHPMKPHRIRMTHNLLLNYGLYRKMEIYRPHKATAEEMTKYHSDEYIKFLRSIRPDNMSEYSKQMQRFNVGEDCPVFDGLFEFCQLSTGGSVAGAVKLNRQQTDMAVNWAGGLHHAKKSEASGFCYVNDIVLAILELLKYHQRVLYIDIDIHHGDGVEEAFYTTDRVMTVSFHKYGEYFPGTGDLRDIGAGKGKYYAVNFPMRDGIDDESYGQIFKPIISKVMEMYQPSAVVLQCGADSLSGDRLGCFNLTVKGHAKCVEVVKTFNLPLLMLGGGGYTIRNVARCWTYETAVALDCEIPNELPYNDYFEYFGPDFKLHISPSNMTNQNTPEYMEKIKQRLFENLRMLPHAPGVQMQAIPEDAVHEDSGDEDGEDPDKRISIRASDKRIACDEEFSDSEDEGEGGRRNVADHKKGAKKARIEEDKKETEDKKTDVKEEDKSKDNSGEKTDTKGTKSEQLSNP

Histone deacetylase 3 = Histone deacetylase 3 (Homo sapiens, UniProt O15379); assay: Inhibition of HDAC3 (unknown origin) assessed as release of fluorogenic AMC pre-incubated for 15 mins followed by addition of trypsin and substrate measured after 60 mins microplate reader analysis
Histone deacetylase 3, sequence (O15379 whole entry): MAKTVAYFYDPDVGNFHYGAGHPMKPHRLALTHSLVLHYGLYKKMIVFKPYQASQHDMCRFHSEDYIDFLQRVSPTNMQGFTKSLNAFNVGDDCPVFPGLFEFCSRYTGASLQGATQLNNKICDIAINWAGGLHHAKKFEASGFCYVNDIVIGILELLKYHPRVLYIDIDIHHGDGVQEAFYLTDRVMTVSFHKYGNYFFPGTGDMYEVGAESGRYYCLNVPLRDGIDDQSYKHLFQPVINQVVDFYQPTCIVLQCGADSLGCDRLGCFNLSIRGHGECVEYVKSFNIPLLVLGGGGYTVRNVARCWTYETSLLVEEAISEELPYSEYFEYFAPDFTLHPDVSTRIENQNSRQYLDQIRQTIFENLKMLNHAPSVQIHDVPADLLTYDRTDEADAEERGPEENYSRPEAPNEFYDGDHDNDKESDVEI

Histone deacetylase 1 = Histone deacetylase 1 (Homo sapiens, UniProt Q13547); assay: Inhibition of HDAC1 (unknown origin) using Ac-Leu-Gly-Lys(Ac)-AMC as substrate pre-incubated for 30 mins followed by substrate addition and measured after 30 mins by fluorescence based analysis
Histone deacetylase 1, sequence (Q13547 whole entry): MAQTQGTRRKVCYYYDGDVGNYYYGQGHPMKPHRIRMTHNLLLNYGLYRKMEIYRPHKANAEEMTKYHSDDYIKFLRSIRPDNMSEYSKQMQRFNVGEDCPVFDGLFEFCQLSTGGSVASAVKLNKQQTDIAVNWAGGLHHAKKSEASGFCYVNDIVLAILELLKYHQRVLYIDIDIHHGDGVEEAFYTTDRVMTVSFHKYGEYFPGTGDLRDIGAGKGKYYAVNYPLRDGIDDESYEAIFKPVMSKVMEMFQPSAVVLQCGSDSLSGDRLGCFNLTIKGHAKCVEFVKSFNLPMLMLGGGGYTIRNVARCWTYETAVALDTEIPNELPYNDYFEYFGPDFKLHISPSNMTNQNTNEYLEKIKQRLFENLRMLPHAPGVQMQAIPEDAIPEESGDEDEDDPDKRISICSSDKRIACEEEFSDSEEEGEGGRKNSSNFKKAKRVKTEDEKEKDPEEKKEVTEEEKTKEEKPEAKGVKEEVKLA

Histone deacetylase 4 = Histone deacetylase 4 (Homo sapiens, UniProt P56524); assay: Inhibition of HDAC4 (unknown origin) assessed as release of fluorogenic AMC pre-incubated for 15 mins followed by addition of trypsin and substrate measured after 60 mins microplate reader analysis
Histone deacetylase 4, sequence (P56524 whole entry): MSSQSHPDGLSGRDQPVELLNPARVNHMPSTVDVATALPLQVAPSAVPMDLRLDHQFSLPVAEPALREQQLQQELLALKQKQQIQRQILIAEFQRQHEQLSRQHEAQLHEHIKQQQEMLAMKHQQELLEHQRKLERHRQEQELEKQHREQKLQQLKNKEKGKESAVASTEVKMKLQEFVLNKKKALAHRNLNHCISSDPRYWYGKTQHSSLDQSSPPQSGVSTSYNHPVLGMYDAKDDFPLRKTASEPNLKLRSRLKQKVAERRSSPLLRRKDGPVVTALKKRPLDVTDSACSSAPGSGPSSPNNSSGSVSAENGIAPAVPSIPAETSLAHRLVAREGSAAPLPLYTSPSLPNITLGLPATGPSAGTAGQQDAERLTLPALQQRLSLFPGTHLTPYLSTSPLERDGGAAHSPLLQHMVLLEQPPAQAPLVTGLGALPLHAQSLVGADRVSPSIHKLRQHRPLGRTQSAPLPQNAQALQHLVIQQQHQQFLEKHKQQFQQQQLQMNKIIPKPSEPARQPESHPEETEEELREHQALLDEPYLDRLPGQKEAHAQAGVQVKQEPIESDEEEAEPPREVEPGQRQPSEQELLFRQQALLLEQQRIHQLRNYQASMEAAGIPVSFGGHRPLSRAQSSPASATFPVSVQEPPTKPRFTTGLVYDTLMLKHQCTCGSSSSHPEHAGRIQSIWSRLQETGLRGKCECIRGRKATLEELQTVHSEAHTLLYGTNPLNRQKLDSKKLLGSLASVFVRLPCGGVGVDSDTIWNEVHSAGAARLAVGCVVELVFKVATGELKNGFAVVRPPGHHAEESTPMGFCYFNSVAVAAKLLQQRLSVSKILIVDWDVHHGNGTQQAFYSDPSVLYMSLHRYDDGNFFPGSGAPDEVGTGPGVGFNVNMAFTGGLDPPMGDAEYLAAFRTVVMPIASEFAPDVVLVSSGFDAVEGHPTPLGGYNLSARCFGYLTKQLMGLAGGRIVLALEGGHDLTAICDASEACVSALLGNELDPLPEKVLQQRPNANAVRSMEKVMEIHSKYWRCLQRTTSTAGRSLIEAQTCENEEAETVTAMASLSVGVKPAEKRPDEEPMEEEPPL

Histone deacetylase 8 [3] = target: T2, Histone deacetylase 8 (Homo sapiens, UniProt Q9BY41); assay: Inhibition of HDAC8 (unknown origin) assessed as release of fluorogenic AMC pre-incubated for 15 mins followed by addition of trypsin and substrate measured after 60 mins microplate reader analysis
T2 sequence (Q9BY41 whole entry): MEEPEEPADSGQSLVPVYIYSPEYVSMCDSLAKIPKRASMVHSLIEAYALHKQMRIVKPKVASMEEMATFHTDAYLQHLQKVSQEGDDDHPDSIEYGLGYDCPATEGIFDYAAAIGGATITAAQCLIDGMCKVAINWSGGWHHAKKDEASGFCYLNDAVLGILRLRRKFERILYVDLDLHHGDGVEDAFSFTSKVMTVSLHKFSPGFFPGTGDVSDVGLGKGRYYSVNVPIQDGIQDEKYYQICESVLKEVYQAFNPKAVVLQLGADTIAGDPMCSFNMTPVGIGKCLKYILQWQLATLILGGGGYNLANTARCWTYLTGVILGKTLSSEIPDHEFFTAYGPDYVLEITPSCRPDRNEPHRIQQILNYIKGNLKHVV

Histone deacetylase 8 [4] = target: T2, Histone deacetylase 8; assay: Inhibition of human recombinant HDAC8 using fluorogenic HDAC substrate class 2A preincubated for 30 mins followed by substrate addition and measured after 15 mins by fluorogenic assay
Jurkat E6.1 [5] = assay: Cytotoxicity against human Jurkat E6.1 cells assessed as reduction in cell viability incubated for 72 hrs by MTT assay; format: functional, cell-based; conditions: Jurkat E6.1, 72 h
MOLT-4 = assay: Cytotoxicity against human MOLT-4 cells assessed as reduction in cell viability; format: functional, cell-based
Histone deacetylase = assay: Inhibition of HDAC (unknown origin) using Fluoro-Substrate Peptide as substrate by fluorescence assay; format: protein assay, Homo sapiens
Jurkat E6.1 [6] = assay: Cytotoxicity against human Jurkat E6.1 cells assessed as reduction in cell viability; format: functional, cell-based
U-937 = assay: Cytotoxicity against human U-937 cells assessed as reduction in cell viability; format: functional, cell-based
Histone deacetylase 8 [7] = target: T2, Histone deacetylase 8; assay: Inhibition of HDAC8 (unknown origin) by fluorescence based assay
Jurkat [8] = assay: cells; format: functional; conditions: Homo sapiens
Description: Growth inhibition of human Jurkat cells

Histone deacetylase 8 [9] = target: T2, Histone deacetylase 8; assay: Inhibition of HDAC8 (unknown origin)
[10] = target: T3, Histone deacetylase 8 (Homo sapiens) (UniProt Q9BY41); assay: Inhibition of His-tagged recombinant HDAC8 (unknown origin) at 10 uM using Boc-Lys(triflouroacetyl)-AMC as fluorogenic substrate pre-incubated for 30 mins followed by substrate addition and measured after 30 mins by fluorescence based analysis relative to control; conditions: time 60.0 min
T3 sequence (whole entry): T2 sequence (Q9BY41 whole entry)

Jurkat [11] = assay: Cytotoxicity against human Jurkat cells assessed as reduction in cell viability incubated for 24 hrs by CellTiter-Glo luminescent cell viability assay; format: functional

SMILES: CCCCCNC(=O)[C@H](CCC(=O)NO)NC(=O)Cc1ccc(Br)cc1
IC50 (Jurkat E6.1 [5]): > 50 µM

SMILES: CCCCCNC(=O)[C@H](CCC(=O)NO)NC(=O)Cc1ccc(Cl)cc1
IC50 (Jurkat E6.1 [5]): < 50 µM

SMILES: CCCCNC(=O)[C@H](CCC(=O)NO)NC(=O)Cc1ccc([N+](=O)[O-])cc1
IC50 (Jurkat E6.1 [5]): < 50 µM

SMILES: CCC(=O)CCCCC[C@@H]1NC(=O)[C@H]2CCCCN2C(=O)[C@H]([C@@H](C)CC)NC(=O)[C@H](Cc2cn(OC)c3ccccc23)NC1=O [APICIDIN]
CC50 (Jurkat [11]): 10 µM

SMILES: CCCCNC(=O)[C@H](CCC(=O)NO)NC(=O)Cc1ccc(Cl)cc1
IC50 (Jurkat E6.1 [5]): < 50 µM

SMILES: N[C@H](Cc1cccc(Cl)c1)C(=O)N1CCN(C(=O)c2cc(F)ccc2F)CC1
IC50 [1]: > 30 µM

SMILES: CCCCCNC(=O)[C@H](CCC(=O)NO)NC(=O)Cc1ccc(Cl)cc1Cl
IC50 (Jurkat E6.1 [5]): < 50 µM

SMILES: O=C(O)CC[C@H](NC(=O)Cc1ccc(Br)cc1)C(=O)NCc1ccccc1Cl
IC50 (MOLT-4): < 35 µM
IC50 (Histone deacetylase): > 10 µM
IC50 (Jurkat E6.1 [6]): > 35 µM
IC50 (U-937): > 35 µM
IC50 (Histone deacetylase 8 [7]): ≤ 10 µM

SMILES: CCCCCNC(=O)[C@H](CCC(=O)NO)NC(=O)Cc1ccccc1Br
IC50 (Jurkat E6.1 [5]): > 50 µM

SMILES: O=C(/C=C/C#Cc1cccc(NS(=O)(=O)c2ccccc2)c1)NO
CC50 (Jurkat [11]): 5.9 µM

Continued, in another order:

IC50 [1]: 1.2 µM
IC50 [2]: > 20 µM
IC50 (Histone deacetylase 2): > 20 µM
IC50 (Histone deacetylase 3): > 20 µM
IC50 (Histone deacetylase 1): 4.3 µM
IC50 (Histone deacetylase 4): > 20 µM
IC50 (Histone deacetylase 8 [3]): 0.0008 µM
SMILES: O=C(NO)[C@@H](Cc1ccccc1)n1nnc(-c2ccccc2)c1C#CC1CC1

IC50 (Histone deacetylase 8 [4]): 0.0797 µM
SMILES: CSCC[C@H]1NCC(=O)NC1=O

IC50 (Histone deacetylase): > 10 µM
IC50 (Histone deacetylase 8 [7]): ≤ 10 µM
SMILES: O=C(O)CC[C@H](NC(=O)Cc1ccc(Cl)cc1Cl)C(=O)NCc1ccccc1
IC50 (MOLT-4): ≤ 35 µM
IC50 (Jurkat E6.1 [6]): ≤ 35 µM
IC50 (U-937): ≤ 35 µM

IC50 [1]: > 20 µM
IC50 [2]: > 20 µM
IC50 (Histone deacetylase 2): > 20 µM
IC50 (Histone deacetylase 3): 4.8 µM
IC50 (Histone deacetylase 1): 4.5 µM
SMILES: COc1ccc(/C=C/C(=O)NO)c(-c2ccc(Br)cc2)c1

IC50 [1]: 2.2 µM
IC50 (Histone deacetylase 2): > 100 µM
IC50 (Histone deacetylase 1): > 100 µM
IC50 (Histone deacetylase 4): > 100 µM
GI50 (Jurkat [8]): 24 µM
SMILES: O=C(NO)c1cccc(-n2cc(CSc3ccccc3)nn2)c1

IC50 (Histone deacetylase): > 10 µM
IC50 (Histone deacetylase 8 [7]): ≤ 10 µM
SMILES: O=C(O)CC[C@H](NC(=O)Cc1ccc(-c2ccccc2)cc1)C(=O)NCc1ccccc1
IC50 (MOLT-4): < 35 µM
IC50 (Jurkat E6.1 [6]): < 35 µM
IC50 (U-937): < 35 µM

IC50 (Histone deacetylase 8 [4]): 0.0674 µM
SMILES: O=C1CN[C@@H](Cc2ccccc2)C(=O)N1

IC50 (Histone deacetylase 8 [9]): 0.117 µM
SMILES: COc1ccc(-c2cccc(-c3cc(OC)c(OC)c(OC)c3)n2)cc1/C=C/C(=O)NO

IC50 [1]: > 20 µM
SMILES: COc1ccc(/C=C/C(=O)NO)c(-c2ccc(-c3ccccc3)cc2)c1

inhibition [10]: 71%
SMILES: CC(C)C[C@H](NC(=O)[C@@H](O)[C@H](N)Cc1ccccc1)C(=O)NCCOCCOCC(=O)Nc1cccc(C(=O)NO)c1

IC50 [1]: > 30 µM
SMILES: N[C@H](Cc1ccc(Cl)cc1Cl)C(=O)N1Cc2ccccc2C1

IC50 (Histone deacetylase 8 [4]): 0.0215 µM
SMILES: O=C1CN[C@H](Cc2ccccc2)C(=O)N1

IC50 (Histone deacetylase): > 10 µM
IC50 (Histone deacetylase 8 [7]): ≤ 10 µM
SMILES: O=C(O)CC[C@H](NC(=O)Cc1ccc(Br)cc1)C(=O)NCc1ccc(Cl)cc1
IC50 (MOLT-4): < 35 µM
IC50 (Jurkat E6.1 [6]): < 35 µM
IC50 (U-937): > 35 µM

GI50 (Jurkat [8]): 2 µM
SMILES: O=C(NO)c1cccc(-c2csc(CSc3ccccc3)n2)c1
